Results as given in patent publication US7569208B2, “Diagnostic agents for pancreatic exocrine function” (Tokyo Gas Company Limited, priority 1999, dated 2009).
Each block holds one molecule with its values, some of them ahead of it.

Key:
[1] = tested on: pancreatic exocrine function; assay: 13C breath test after oral administration in olive oil to chronic pancreatitis and control rats (GC-MS); assay type: in vivo, rat
Procedure: A ^13C-FDL breath test was carried out wherein ^13C-FDL was orally administered to chronic pancreatitis and control rats and the time course of the ^13C concentration in the exhaled CO2 after the administration was measured.
(§1) According to Mundlos et al. (Mundlos et al., Pancreas, 1:29 (1986)), the chronic pancreatitis rats were prepared by injecting oleic acid into the pancreatic duct of Wistar male rats of 5 weeks old and kept for 3 weeks. Rats in which midline incision was made on the abdomen were used as the control.
The chronic pancreatitis and control rats of 8 weeks old, which fasted overnight, were fixed without anesthesia in a rat holder for a microwave irradiation apparatus. The breath was collected at a rate of about 100 to 300 ml/min using a CO2 meter (CAPSTER-100) to monitor the CO2 concentration. […]
The breath was taken out as a sample immediately before the administration and at every hour for 5 hours after the administration and the ^13C concentration in the exhaled CO2 was analyzed by a gas chromatography-mass spectrometer (GC-MS). The analytic conditions for GC-MS are as follows. The CO2 concentration in the collected breath was held at 3±0.5%. GC-MS conditions:
Assuming that the isotopic abundance of oxygen is the same as that which is naturally occurring, ^13C concentration was calculated from the peak areas of the ions m/z=45 and 46 according to the following equation: […]
Δ^13C (‰) was calculated from the ^13C concentration in the exhaled CO2 at each time point (^13C tmin) and the ^13C concentration in standard CO2 (^13C std) according to the following equation: Δ^13C (‰)=[(^13C tmin−^13C 0 min)/^13C std]×1000 12.2 Results

[2] = at 25° C.; cited from earlier work
[3] = Solubility / precipitation of phenylalanine in distilled water with or without hydroxypropyl-β-cyclodextrin; assay type: physicochemical; details: 299 mg of [1-^13C]-phenylalanine in 5 ml distilled water, dissolved at 85° C., cooled to 25° C.
Description: The increase of solubility of phenylalanine in the presence of hydroxypropyl-β-cyclodextrin confirmed the formation of (1-^13C]-phenylalanine/hydroxypropyl-β-cyclodextrin inclusion complex.

[4] = tested on: pancreatic exocrine function; assay: 13C breath test after oral administration to oleic acid-induced chronic pancreatitis and control rats (13CO2 analyzer); assay type: in vivo, rat; details: for Δ^13C (‰) value in exhaled CO2: 75 mg/kg oral, at 10 minutes
Procedure: ^13C-labeled cyclodextrin breath test was carried out wherein ^13C-labeled cyclodextrin prepared in Example 1 was orally administered to chronic pancreatitis and control rats and the time course of the ^13C concentration in the exhaled CO2 after the administration was measured.
as §1
The chronic pancreatitis and control rats of 8 weeks old, which fasted overnight, were fixed without anesthesia in a rat holder for a microwave irradiation apparatus. The breath was collected at a rate of about 100 to 300 ml/min using a stroke pump (Variable Stroke Pump VS-500, Shibata Kagaku Kogyo) and introduced directly to a flow cell of a ^13CO2 analyzer EX-130S (Nihon Bunko) to measure ^13C atom % and the carbon dioxide gas concentration continuously. A Perma Pure drier (MD-050-12P, Perma Pure Inc.) was set between the rat holder and the stroke pump to remove out water vapor in the breath. After the CO2 concentration was stabilized, the rat was once removed out of the rat holder and an aqueous solution of ^13C-labeled cyclodextrin was administered (75 mg/kg, 5 ml/kg) into the stomach using an oral sonde.
Δ^13C (‰) was calculated from the ^13C concentration in the exhaled CO2 at each time point (^13C tmin) and the ^13C concentration in standard CO2 (^13C std) according to the following equation: Δ^13C (‰)=[(^13C tmin−^13C 0 min)/^13C std]×1000

Molecule: ^13C-dilaurylfluorescein [^13C-FDL]
- Δ^13C (‰) values of chronic pancreatitis rats compared with control rats ([1]; 160 mg/kg oral in olive oil, at each time point for 5 hours (FIG. 10)): smaller than the control rats
- Δ^13C (‰) value in exhaled CO2 ([1]; chronic pancreatitis rats, 160 mg/kg oral in olive oil, at 3 hours): 42.0±21.3 ‰
- Δ^13C (‰) value in exhaled CO2 ([1]; chronic pancreatitis rats, 160 mg/kg oral in olive oil, at 5 hours): 95.4±47.1 ‰
- Δ^13C (‰) value in exhaled CO2 ([1]; control rats, 160 mg/kg oral in olive oil, at 3 hours): 153.3±22.8 ‰
- Δ^13C (‰) value in exhaled CO2 ([1]; control rats, 160 mg/kg oral in olive oil, at 5 hours): 236.3±12.4 ‰

Molecule: N[C@@H](Cc1ccccc1)C(=O)O [phenylalanine]
- solubility [2]: 148 mg/5 ml

- precipitation of phenylalanine when the solution was allowed to cool to 25° C. [3]: phenylalanine was precipitated
Molecule: N[C@@H](C[13c]1ccccc1)C(=O)O [(1-^13C]-phenylalanine, [1-^13C]-phenylalanine]

Molecule: ^13C-dioctanoylfluorescein [^13C-FDO]
- Δ^13C (‰) values of chronic pancreatitis rats compared with control rats ([1]; 200 mg/kg oral in olive oil, at each time point for 5 hours (FIG. 11)): smaller than the control rats
- Δ^13C (‰) value in exhaled CO2 ([1]; chronic pancreatitis rats, 200 mg/kg oral in olive oil, at 1 hour): 2.7±3.8 ‰
- Δ^13C (‰) value in exhaled CO2 ([1]; chronic pancreatitis rats, 200 mg/kg oral in olive oil, at 3 hours): 18.4±12.1 ‰
- Δ^13C (‰) value in exhaled CO2 ([1]; chronic pancreatitis rats, 200 mg/kg oral in olive oil, at 4 hours): 15.2±13.4 ‰
- Δ^13C (‰) value in exhaled CO2 ([1]; chronic pancreatitis rats, 200 mg/kg oral in olive oil, at 5 hours): 20.6±11.2 ‰
- Δ^13C (‰) value in exhaled CO2 ([1]; control rats, 200 mg/kg oral in olive oil, at 1 hour): 46.3±11.5 ‰
- Δ^13C (‰) value in exhaled CO2 ([1]; control rats, 200 mg/kg oral in olive oil, at 3 hours): 60.6±12.7 ‰
- Δ^13C (‰) value in exhaled CO2 ([1]; control rats, 200 mg/kg oral in olive oil, at 4 hours): 88.7±8.2 ‰
- Δ^13C (‰) value in exhaled CO2 ([1]; control rats, 200 mg/kg oral in olive oil, at 5 hours): 73.6±14.1 ‰

Molecule: galactosyl ^13C-maltohexaose [galactosyl ^13C-labeled maltohexaose]
- Δ^13C (‰) value in exhaled CO2 ([4]; chronic pancreatitis rats): 18.9 ± 17 ‰
- Δ^13C (‰) value in exhaled CO2 ([4]; control rats): 95.6 ± 42.4 ‰
- increase in Δ^13C (‰) value of chronic pancreatitis rats compared with control rats ([4]; galactosyl ^13C-maltohexaose 75 mg/kg oral, for 30 minutes (FIG. 4)): smaller than the control rats
